Our source for the IC50 and Activity values is ChEMBL document CHEMBL4823283, “Vomifoliol isolated from mangrove plant Ceriops tagal inhibits the NFAT signaling pathway with CN as the target enzyme in vitro” (Bioorg Med Chem Lett, 2021).

The nature of assay [1]: Inhibition of calcineurin (unknown origin). The arrangement: species or system Homo sapiens.
Assay [2] concerns Splenocyte. As to the kind of experiment: Cytotoxicity against mouse splenocytes assessed as cell survival at 1 to 30 uM measured after 48 hrs by CCK-8 assay relative to control. In kind it is functional. The following applies: dose 1-30 µM. For orientation: Tetrazolium assays rely on reduction of a dye to a coloured formazan, in cell work by metabolically active cells.
For assay [3], the system named is Splenocyte. As to the kind of experiment: Cytotoxicity against mouse splenocytes assessed as cell survival at 50 to 100 uM measured after 48 hrs by CCK-8 assay relative to control. The format is functional. The following applies: dose 50-100 µM.
The test system of assay [4] is Splenocyte. Put plainly: Cytotoxicity against mouse splenocytes assessed as cell survival in presence of ConA measured after 44 hrs by CCK-8 assay. The format is functional, cell-based.
In assay [5] the test system is Jurkat. As to the kind of experiment: Cytotoxicity against human Jurkat cells assessed as cell survival at 1 to 40 uM measured after 48 hrs by MTT assay relative to control. In kind it is functional. To be noted: dose 1-40 µM.
In assay [6] the test system is Jurkat. As to the kind of experiment: Cytotoxicity against human Jurkat cells assessed as cell survival at 75 to 100 uM measured after 48 hrs by MTT assay relative to control. The format is functional. To be noted: dose 75-100 µM.
Assay [7] concerns Jurkat. Put plainly: Cytotoxicity against human Jurkat cells assessed as inhibition of PMA/ionomycin-induced proliferation measured after 48 hrs by MTT assay. In kind it is functional, cell-based.
For assay [8], the target named is Protein phosphatase 3 catalytic subunit alpha (Homo sapiens) (UniProt Q08209). Put plainly: Inhibition of human calcineurin activity in PMA/ionomycin-induced human Jurkat cells measured after 44 hrs by Malachite green dye based fast green assay. The following applies: dose 1-100 µM.
Assay [9] concerns the target T1, Nuclear factor of activated T-cells, cytoplasmic 1 (Homo sapiens) (UniProt O95644).
T1 sequence (whole entry): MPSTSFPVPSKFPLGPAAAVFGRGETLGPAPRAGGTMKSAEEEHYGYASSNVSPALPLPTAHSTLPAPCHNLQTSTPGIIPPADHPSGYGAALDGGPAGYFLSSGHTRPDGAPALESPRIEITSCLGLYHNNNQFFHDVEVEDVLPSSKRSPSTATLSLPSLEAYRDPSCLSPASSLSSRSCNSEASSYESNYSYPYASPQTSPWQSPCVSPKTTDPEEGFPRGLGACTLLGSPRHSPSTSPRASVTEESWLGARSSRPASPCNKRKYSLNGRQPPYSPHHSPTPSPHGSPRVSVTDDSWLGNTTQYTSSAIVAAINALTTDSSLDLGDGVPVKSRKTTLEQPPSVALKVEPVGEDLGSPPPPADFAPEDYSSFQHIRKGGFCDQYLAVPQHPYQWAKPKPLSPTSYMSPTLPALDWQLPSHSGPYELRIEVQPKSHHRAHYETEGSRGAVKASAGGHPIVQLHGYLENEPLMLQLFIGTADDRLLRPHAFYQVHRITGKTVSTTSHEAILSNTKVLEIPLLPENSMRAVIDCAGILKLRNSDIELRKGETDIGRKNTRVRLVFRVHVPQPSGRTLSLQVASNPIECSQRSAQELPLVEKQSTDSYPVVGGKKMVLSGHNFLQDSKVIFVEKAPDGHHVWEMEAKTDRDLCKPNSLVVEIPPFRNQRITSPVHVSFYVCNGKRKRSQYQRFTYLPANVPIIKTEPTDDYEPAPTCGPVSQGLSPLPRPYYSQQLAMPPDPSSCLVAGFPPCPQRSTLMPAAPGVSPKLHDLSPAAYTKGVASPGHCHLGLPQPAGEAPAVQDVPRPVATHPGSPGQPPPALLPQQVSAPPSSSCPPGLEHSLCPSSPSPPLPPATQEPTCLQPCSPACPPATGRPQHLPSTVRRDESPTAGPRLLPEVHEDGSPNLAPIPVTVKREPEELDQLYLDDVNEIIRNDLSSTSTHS
Put plainly: Inhibition of human NFAT-1 in human Jurkat cells assessed as decrease of PMA/ionomycin-induced NFAT dephosphorylation measured after 44 hrs by western blot assay. The format is cell-based. The following applies: dose 5-25 µM. (Immunoblotting shows a protein as a band on a membrane.)

In assay [10] the target is T1, Nuclear factor of activated T-cells, cytoplasmic 1 (Homo sapiens). Put plainly: Inhibition of human NFAT-1 in human Jurkat cells assessed as decrease of PMA/ionomycin-induced IL-2 concentration measured after 44 hrs by western blot assay. In kind it is cell-based. The following applies: dose 5-25 µM.

Where only a bound is given, the exact number is not on record here.

In general, IC50 refers to the concentration at which inhibition is half-maximal. `CC1=CC(=O)CC(C)(C)[C@@]1(O)/C=C/[C@@H](C)O` [BLUMENOL A]: the IC50 in [1] turned out to be 15.1 µM; in the assay on Splenocyte [4] it was 18.7 µM; with Jurkat [7], 20.2 µM. The Activity with Splenocyte [2] is more than 90%; with Splenocyte [3], less than 90%; with Splenocyte [4], “Dose-Dependent Effect”; with Jurkat [5] it was more than 90%; with Jurkat [6], less than 90%; in the assay with Jurkat [7], “Dose-Dependent Effect”. The Activity entry in [8], in [9] and in assay [10] was “Dose-Dependent Effect” throughout.
